Assays:
[1] = biological target: T1, Programmed cell death protein 1/Programmed cell death 1 ligand 1 (Homo sapiens, UniProt Q15116+Q9NZQ7); assay: Inhibition of PD-1/PD-L1 (unknown origin) interaction; type: protein-complex assay
[2] = biological target: T1, Programmed cell death protein 1/Programmed cell death 1 ligand 1; assay: Inhibition of Tag2-PD-1/Tag1-PD-L1 (unknown origin) protein-protein interaction incubated for 15 mins by HTRF assay; type: protein-complex assay
[3] = biological target: Programmed cell death 1 ligand 1 (Homo sapiens) (UniProt Q9NZQ7); assay: Binding affinity to human PD-L1 assessed as change in melting temperature at 10 uM by thermal shift based DSF assay
[4] = biological target: Programmed cell death 1 ligand 1 (Homo sapiens) (UniProt Q9NZQ7); assay: Binding affinity to human PD-L1 assessed as change in melting temperature at 20 uM by thermal shift based DSF assay
[5] = biological target: Programmed cell death 1 ligand 1 (Homo sapiens) (UniProt Q9NZQ7); assay: Binding affinity to human PD-L1 assessed as change in melting temperature at 50 uM by thermal shift based DSF assay
[6] = biological target: T1, Programmed cell death protein 1/Programmed cell death 1 ligand 1; assay: Inhibition of PD-1/PD-L1 interaction in CHO cells expressing PD-Ll/TCR cocultured with human Jurkat cells expressing PD-1 assessed as T-cell activation by measuring maximum relative luminescence intensity value at 10 uM incubated for 6 hrs by luciferase reporter gene assay; type: cell-based
[7] = Cytotoxicity against human PBMC cells assessed as reduction in cell growth incubated for 72 hrs by CCK8 assay; type: toxicity, cell-based
[8] = biological target: T1, Programmed cell death protein 1/Programmed cell death 1 ligand 1; assay: Inhibition of PD-1/PD-L1 interaction in human CD3+ T-cells co-cultured with Hep3B cells expressing OS8/hPD-L1 assessed as increase in IFN-gamma secretion measured after 72 hrs by ELISA; details: dose 0.082-2.222 µM, DDE = dose-dependent effect
[9] = biological target: T1, Programmed cell death protein 1/Programmed cell death 1 ligand 1; assay: Inhibition of PD-1/PD-L1 interaction in human CD3+ T-cells co-cultured with Hep3B cells expressing OS8/hPD-L1 assessed as increase in IFN-gamma secretion at 2.22 uM measured after 72 hrs by ELISA; design: scale not given: the % may be the effect or the level left
[10] = Cytotoxicity against human PBMC cells assessed as reduction in cell growth at 0.003 to 2.22 uM incubated for 72 hrs by CCK8 assay; type: toxicity, cell-based; details: dose 0.003-2.22 µM
[11] = Cytotoxicity against human PBMC cells assessed as reduction in cell growth at >2.22 uM incubated for 72 hrs by CCK8 assay; type: toxicity, cell-based
[12] = biological target: T1, Programmed cell death protein 1/Programmed cell death 1 ligand 1; assay: Inhibition of C-terminal-Fc-tagged human recombinant PD-1 (25 to 167 residues)/C-terminal-His-tagged recombinant human PD-L1 (19 to 238 residues) interaction incubated for 40 mins by HTRF assay; type: protein-complex assay

T1 sequence (Q15116 whole entry): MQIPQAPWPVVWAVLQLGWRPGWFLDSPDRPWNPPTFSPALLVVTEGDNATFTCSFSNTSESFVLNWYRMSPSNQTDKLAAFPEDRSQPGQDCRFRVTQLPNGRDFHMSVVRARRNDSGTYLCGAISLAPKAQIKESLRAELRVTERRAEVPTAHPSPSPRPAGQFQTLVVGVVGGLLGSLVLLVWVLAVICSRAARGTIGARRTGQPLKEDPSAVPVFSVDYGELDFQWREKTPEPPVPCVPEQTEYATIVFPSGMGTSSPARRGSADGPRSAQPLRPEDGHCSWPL
T1 sequence (Q9NZQ7 whole entry): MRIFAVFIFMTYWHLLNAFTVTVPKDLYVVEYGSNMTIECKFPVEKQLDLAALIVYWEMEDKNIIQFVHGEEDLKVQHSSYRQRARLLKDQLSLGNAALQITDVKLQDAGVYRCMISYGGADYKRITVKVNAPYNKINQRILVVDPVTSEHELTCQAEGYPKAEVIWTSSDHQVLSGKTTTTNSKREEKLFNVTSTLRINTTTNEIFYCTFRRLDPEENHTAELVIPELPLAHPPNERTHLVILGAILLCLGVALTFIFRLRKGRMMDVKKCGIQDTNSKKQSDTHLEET
Programmed cell death 1 ligand 1 (Homo sapiens), sequence (Q9NZQ7 whole entry): as above

SMILES	IC50 [2]	other results
CC(C)OC(=O)[C@H](CO)NCc1cc(Cl)c(OCc2cccc(-c3ccc4c(c3)OCCO4)c2Br)cc1OCc1cccnc1	–	IC50 [1]: 10 nM
CC(CO)(CO)NCc1cc(Cl)c(Oc2ncnc3c(-c4ccc5c(c4)OCCO5)cccc23)cc1OCc1cncc(C#N)c1	1.57 nM	ΔTm [3]: 2.35 °C; ΔTm [4]: 3.2 °C; ΔTm [5]: 3.25 °C; RLU [6]: 3120; IC50 at 72 h [7]: 12400 nM; inhibition [8]: Dde; Activity [9]: 820%; Activity [10]: Non-Toxic; Activity [11]: Toxic
N#Cc1cccc(COc2cc(Oc3ncnc4c(-c5ccc6c(c5)OCCO6)cccc34)c(Cl)cc2CN2CCCC[C@H]2C(=O)O)c1	> 500 nM	–
N#Cc1cccc(COc2cc(Oc3ncnc4c(-c5ccc6c(c5)OCCO6)cccc34)c(Cl)cc2CNCCO)c1	22.4 nM	–
CC(=O)NCCNCc1cc(Cl)c(Oc2ncnc3c(-c4ccc5c(c4)OCCO5)cccc23)cc1OCc1cncc(C#N)c1	96 nM	–
N#Cc1cccc(COc2cc(Oc3ncnc4c(-c5ccc6c(c5)OCCO6)cccc34)c(Cl)cc2CNC(CO)CO)c1	31.1 nM	–
CC(=O)NCCNCc1cc(Cl)c(Oc2ncnc3c(-c4ccc5c(c4)OCCO5)cccc23)cc1OCc1cccc(C#N)c1	> 500 nM	–
N#Cc1cncc(COc2cc(Oc3ncnc4c(-c5ccccc5)cccc34)c(Cl)cc2CNC(CO)CO)c1	57.6 nM	–
N#Cc1cncc(COc2cc(Oc3ncnc4c(-c5ccc6c(c5)OCCO6)cccc34)c(Cl)cc2CNCCO)c1	12.2 nM	–
N#Cc1cccc(COc2cc(Oc3ncnc4c(-c5ccccc5)cccc34)c(Cl)cc2CN2CCCC[C@@H]2C(=O)O)c1	> 500 nM	–
CC(C)(NCc1cc(Cl)c(Oc2ncnc3c(-c4ccc5c(c4)OCCO5)cccc23)cc1OCc1cccc(C#N)c1)C(=O)O	88.6 nM	–
N#Cc1cccc(COc2cc(Oc3ncnc4c(-c5ccc6c(c5)OCCO6)cccc34)c(Cl)cc2CN2CCCC[C@@H]2C(=O)O)c1	411 nM	–
N#Cc1cccc(COc2cc(Oc3ncnc4c(-c5ccccc5)cccc34)c(Cl)cc2CNC(CO)CO)c1	24.2 nM	–
CC(CO)(CO)NCc1cc(Cl)c(Oc2ncnc3c(-c4ccccc4)cccc23)cc1OCc1cncc(C#N)c1	32.5 nM	–
CC(CO)(CO)NCc1cc(Cl)c(Oc2ncnc3c(-c4ccc5c(c4)OCCO5)cccc23)cc1OCc1cccc(C#N)c1	18.8 nM	–
CC(=O)NCCNCc1cc(Cl)c(Oc2ncnc3c(-c4ccccc4)cccc23)cc1OCc1cccc(C#N)c1	> 500 nM	–
N#Cc1cccc(COc2cc(Oc3ncnc4c(-c5ccccc5)cccc34)c(Cl)cc2CN2CCCC[C@H]2C(=O)O)c1	> 500 nM	–
Cc1c(-c2ccccc2)cccc1-c1nc2cc(CNCCO)ccc2o1	–	IC50 [12]: ≤ 10 nM
CC(CO)(CO)NCc1cc(Cl)c(Oc2ncnc3c(-c4ccccc4)cccc23)cc1OCc1cccc(C#N)c1	22.9 nM	–
CC(=O)NCCNCc1cc(Cl)c(Oc2ncnc3c(-c4ccccc4)cccc23)cc1OCc1cncc(C#N)c1	187 nM	–
N#Cc1cncc(COc2cc(Oc3ncnc4c(-c5ccc6c(c5)OCCO6)cccc34)c(Cl)cc2CNC(CO)CO)c1	5.37 nM	RLU [6]: 3370; IC50 at 72 h [7]: 5310 nM; inhibition [8]: Dde; Activity [9]: 654%; Activity [10]: Non-Toxic; Activity [11]: Toxic
N#Cc1cncc(COc2cc(Oc3ncnc4c(-c5ccccc5)cccc34)c(Cl)cc2CNCCO)c1	171 nM	–
CC(C)(NCc1cc(Cl)c(Oc2ncnc3c(-c4ccccc4)cccc23)cc1OCc1cccc(C#N)c1)C(=O)O	150 nM	–
N#Cc1cccc(COc2cc(Oc3ncnc4c(-c5ccccc5)cccc34)c(Cl)cc2CNCCO)c1	78.5 nM	–
